Measured values published in US20060271062A1 (priority 2005, published 2006).
Where two headings read alike, the source gives them in different places.

Tests used:
lens epithelial cell = details: in vitro; cited from earlier work
[1] = tested on: residual lens epithelial cells; assay type: cell-based, human
[2] = tested on: residual lens epithelial cells; details: rabbit, in vivo
trabecular meshwork = details: cited from earlier work
lens epithelial cells [3] = details: rabbit, in vivo
lens epithelial cells [4] = assay type: cell-based, human
[5] = tested on: lens, lens capsule or corneal endothelium and other adjacent tissues; details: outflow facility-effective concentrations, infusion for 45-90 min; cited from earlier work
[6] = tested on: residual lens epithelial cells; experiment: Intracapsular latrunculin-B during extracapsular lens extraction in rabbits (Example 1); assay type: in vivo, rabbit; details: 2 μM
[7] = 1 ml intracapsular for 10 minutes then 5 min irrigation/aspiration, vehicle 0.25% DMSO, light microscopy of fixed capsular bag

O=c1[nH]cc(F)c(=O)[nH]1 [5-fluorouracil]
Inhibiting lens epithelial cell proliferation (lens epithelial cell): effective

CC1CNCCN1S(=O)(=O)c1cccc2cnccc12 (stereo not drawn) [H-7, 1-(5-isoquinolinyl-sulfonyl)-2-methylpiperazine]
Lens epithelial cells removed in comparison to control vehicle, determined by LM [1]: more lens epithelial cells be removed | Lens epithelial cells removed in comparison to control vehicle, determined by LM [2]: more lens epithelial cells be removed | Outflow facility (trabecular meshwork; monkey, in vivo): significantly increased | PCO formation or severity in comparison to control vehicle (lens epithelial cells [3]): prevent the formation or reduce the severity of PCO | PCO formation or severity in comparison to control vehicle (lens epithelial cells [4]): prevent the formation or reduce the severity of PCO

COc1cc2c(c(OC)c1OC)-c1ccc(OC)c(=O)cc1[C@@H](NC(C)=O)CC2 [colchicine]
Inhibiting lens epithelial cell proliferation (lens epithelial cell): effective

COc1cccc2c1C(=O)c1c(O)c3c(c(O)c1C2=O)C[C@@](O)(C(C)=O)C[C@@H]3O[C@H]1C[C@H](N)[C@H](O)[C@H](C)O1 [daunomycin]
Inhibiting lens epithelial cell proliferation (lens epithelial cell): effective

C/C1=C/C(=O)O[C@@H]2C[C@@H](CC[C@H](C)/C=C\CC1)O[C@@](O)([C@@H]1CSC(=O)N1)C2 [latrunculin-B]
Lens epithelial cells removed in comparison to control vehicle, determined by LM [1]: more lens epithelial cells be removed | Lens epithelial cells removed in comparison to control vehicle, determined by LM [2]: more lens epithelial cells be removed | Outflow facility (trabecular meshwork; living monkeys, all concentrations named in b65 (latrunculin-B 0.5-2 μM, 0.01% topical; H-7 100-300 μM, 5% topical)): significantly increased | PCO formation or severity in comparison to control vehicle (lens epithelial cells [3]): prevent the formation or reduce the severity of PCO | Observable damage to the lens, lens capsule or corneal endothelium and other adjacent tissues [5]: did not induce any observable damage | PCO formation or severity in comparison to control vehicle (lens epithelial cells [4]): prevent the formation or reduce the severity of PCO | Clearance of residual lens epithelial cells during the extracapsular lens extraction [6]: facilitated the clearance | Area A (dirty area with dense residual materials): treated eye versus vehicle-treated eye [6, 7]: no difference | Area B (relatively clean area): residual lens epithelial cells versus vehicle-treated eye [6, 7]: fewer residual lens epithelial cells

CO[C@@]12[C@H](COC(N)=O)C3=C(C(=O)C(C)=C(N)C3=O)N1C[C@@H]1N[C@@H]12 [mitomycin C]
Inhibiting lens epithelial cell proliferation (lens epithelial cell): effective
